Experimental data from article PMC8333425, “Discovery of a dual Ras and ARF6 inhibitor from a GPCR endocytosis screen” (Nature Communications, 2021).
Where “and” joins values, the source holds several entries; their conditions need not be identical. Equal entries are not always repeated.

Tested on: Ras
Experiment: GST-Raf1-RBD pull-down of AT1R-mediated Ras activation
Assay type: cell-based, human
Details: for Ras-GTP over total Ras, GST-Raf1-RBD pull-down, AT1R: Comp 21 50 μM, individual experiments
From the text: Since 21 inhibited both ERK1/2 and Akt activation by GPCRs and EGFR, we looked at a common target involved in both pathways. The small G protein Ras is an upstream regulator of both Ras-RAF-MEK-ERK and PI3K/Akt signaling pathways[35],[36]. Therefore, we explored 21’s ability to inhibit Ras activity using GST-Raf1-Ras-binding domain (RBD) in a pull-down assay. A reduction of 60% in GTP-bound Ras was noticed in pulled-down from cells treated with 21 and stimulated with either AT1R or EGFR, as compared to vehicle-treated cells (Fig. 4a, b). Complementary to this in vitro assay, we generated a Ras BRET assay, using the Raf-Ras binding domain tagged with RlucII (Raf1-RBD-RlucII) and the rGFP at the PM (rGFP-CAAX) (Supplementary Fig. 3c), to assess 21’s effects on Ras activation kinetics. […] Overexpression of either the active form of Ras (G12V) or SOS1 anchored at the PM (SOS-CAAX) produced a robust basal BRET signal that was no longer modulated by receptor activation (Supplementary Fig. 3d). […] 21’s potency to inhibit ARF6 and Ras is also consistent with its relative efficacy for inhibiting AT1R internalization and MAPK, respectively, when used at 50 μM (e.g., around 7 and 70 times the respective IC50s) (Figs. 2e and 3a). We also assessed if 21 was acting as a pan small G protein inhibitor by testing its effect on Rho and Rac/Cdc42. […] To assess Rac/Cdc42 activity, we generated a Rac/Cdc42 BRET sensor that consisted of the PAK-CRIB domain fused to RlucII (PAK-CRIB-RlucII) and the rGFP-CAAX (Supplementary Fig. 3e). PAK-CRIB, which binds to active Rac/Cdc42, was recruited to the PM upon AngII stimulation of cells and generated a robust BRET signal, which was blocked by the overexpression of the DN Rac1-T17N. Overexpression of the constitutively active Rac1-Q61L increased the basal BRET, which was no longer modulated by AT1R stimulation (Supplementary Fig. 3f).
Activation of ARF1, ARF6, Ras, and Rho were assessed by using GST pull-down assays. […] ImageLab 5.2 software was used to quantify the digital blots as fold of the amount of pulled down protein over total protein. […]

CC(C)C(=O)N1CCN(c2ccc(NC(=O)c3cc4ccccc4o3)cc2Cl)CC1 [Compound 21]
reduction in GTP-bound Ras, AT1R-stimulated cells (pull-down) (50 μM, compared to vehicle-treated cells): 60%
Ras-GTP over total Ras, GST-Raf1-RBD pull-down, AT1R (AngII): 0.2615 and 0.2571 and 0.1009 and 0.2909 and 0.08351
Ras-GTP over total Ras, GST-Raf1-RBD pull-down, AT1R (Ctrl (no AngII)): 0.2526 and 0.08678 and 0.1353 and 0.1074 and 0.09399
